# Tests used:
# [1] = system: RL95-2 cells; assay: Inhibition of RL95-2 cell proliferation (CellTiter-Glo); type: cell-based; details: Homo sapiens; RL95-2 cells (MSI-H), 120 hours
# How it was run: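 Proliferation IC50 derived by nonlinear regression of % inhibition against log concentration, with 0.1% DMSO wells as reference. CellTiter-Glo luminescence was read after 120 h of compound exposure (10000 nM down to 1.52 nM final) at 37 °C. MSI-H RL95-2 cells seeded at 500/well in DMEM/F12 with 10% FBS the day before.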
# [2] = target: T1, recombinant human WRN (Homo sapiens, UniProt Q14191); assay: Inhibition of WRN enzyme activity (ATPase), ADP-Glo Kinase Assay; type: biochemical; details: WRN protein 5 nM, Flap 0.1 nM, ATP 30 µM; read-out: IC50
# T1 construct: purchased BPS 101264
# T1 sequence (Q14191 whole entry): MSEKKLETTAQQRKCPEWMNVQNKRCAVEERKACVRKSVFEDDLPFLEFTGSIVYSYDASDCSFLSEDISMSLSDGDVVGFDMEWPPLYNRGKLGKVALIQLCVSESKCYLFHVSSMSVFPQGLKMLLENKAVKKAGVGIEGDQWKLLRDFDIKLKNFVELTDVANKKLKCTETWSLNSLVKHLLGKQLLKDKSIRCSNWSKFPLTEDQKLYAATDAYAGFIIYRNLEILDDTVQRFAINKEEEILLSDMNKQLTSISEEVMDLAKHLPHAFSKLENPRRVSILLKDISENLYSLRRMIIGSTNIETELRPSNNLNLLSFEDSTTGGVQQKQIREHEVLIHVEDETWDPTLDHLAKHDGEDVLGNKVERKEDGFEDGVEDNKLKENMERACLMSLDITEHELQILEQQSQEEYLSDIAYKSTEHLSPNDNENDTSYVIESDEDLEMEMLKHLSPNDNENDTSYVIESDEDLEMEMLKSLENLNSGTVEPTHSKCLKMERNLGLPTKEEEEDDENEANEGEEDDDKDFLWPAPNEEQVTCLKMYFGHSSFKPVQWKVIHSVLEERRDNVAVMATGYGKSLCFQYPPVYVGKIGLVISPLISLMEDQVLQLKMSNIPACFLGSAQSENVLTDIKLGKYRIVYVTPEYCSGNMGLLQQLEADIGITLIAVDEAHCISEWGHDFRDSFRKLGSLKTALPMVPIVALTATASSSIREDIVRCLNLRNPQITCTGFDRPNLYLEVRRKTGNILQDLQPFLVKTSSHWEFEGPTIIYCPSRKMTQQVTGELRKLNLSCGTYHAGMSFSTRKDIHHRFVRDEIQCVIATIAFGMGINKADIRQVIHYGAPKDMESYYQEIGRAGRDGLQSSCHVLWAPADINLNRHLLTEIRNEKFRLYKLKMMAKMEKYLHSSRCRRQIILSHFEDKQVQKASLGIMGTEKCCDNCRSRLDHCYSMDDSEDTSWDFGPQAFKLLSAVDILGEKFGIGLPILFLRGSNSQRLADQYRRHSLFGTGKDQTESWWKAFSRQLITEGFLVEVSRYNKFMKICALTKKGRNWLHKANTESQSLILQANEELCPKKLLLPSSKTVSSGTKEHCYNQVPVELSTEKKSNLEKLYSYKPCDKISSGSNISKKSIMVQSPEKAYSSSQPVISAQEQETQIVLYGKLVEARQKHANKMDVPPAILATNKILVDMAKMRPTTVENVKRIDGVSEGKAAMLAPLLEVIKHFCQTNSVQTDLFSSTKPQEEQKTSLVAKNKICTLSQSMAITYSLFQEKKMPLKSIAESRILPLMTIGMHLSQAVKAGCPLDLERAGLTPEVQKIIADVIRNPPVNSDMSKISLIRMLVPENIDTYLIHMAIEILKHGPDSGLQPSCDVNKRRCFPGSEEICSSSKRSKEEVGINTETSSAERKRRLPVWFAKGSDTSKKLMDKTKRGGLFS
# How it was run: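 ATPase activity was measured by ADP-Glo luminescence after a 10-min room-temperature reaction with 30 µM ATP and 0.1 nM Flap26 oligonucleotide substrate. The 5 nM WRN had first been exposed to compound (0.004–1000 nM) for 15 min in pH 7.5 Tris buffer with 2 mM MgCl2. IC50 values came from log-concentration regression against the DMSO control.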
# [3] = Pharmacokinetic test in mice after intragastric administration; type: in vivo; details: male, mouse, plasma, ICR mice, Oral (10 mg/kg)
# Protocol: ICR mice were used as test animals, the plasma concentrations of the control compound HRO761 and the compounds of the present disclosure at different time points after intragastric administration were determined by LC/MS/MS method, and the pharmacokinetic characteristics of the compounds of the present disclosure in mice were studied.
# ICR mice, male, 30.8 to 38.0 g, purchased from Vital River Laboratory Animal Technology Co., Ltd.
# An appropriate amount of the test compound was weighed, and an appropriate amount of DMA (N,N-dimethylacetamide), 30% Solutol HS15 (30% polyethylene glycol-15 hydroxystearate), and Saline (saline) were added sequentially, the mixture was ultrasonicated and vortex mixed to prepare a 1 mg/mL dosing formulation. The ratio of DMA:30% Solutol HS15:Saline was 5:5:90 (v/v/v).
# After overnight fasting, ICR mice in each test compound injection group (9 mice per group) were administered intragastrically (PO, compound dose was 10 mg/kg, administration volume was 10 mL/kg), and food was given 4 hours after administration.
# About 0.1 mL of blood was collected via the orbital cavity before administration and at 0.25 h, 0.5 h, 1 h, 2 h, 4 h, 8 h, 10 h, and 24 h after administration, and whole blood samples were placed in anticoagulant tubes containing EDTA-K2. The samples were placed on ice after collection, and plasma was separated by centrifugation (centrifugation conditions: 1500 g, 10 minutes). The collected plasma was stored at -40 to -20 °C before analysis.
# The content of the test compound in mouse plasma after intragastric administration was determined by LC-MS/MS.
compound,measurement,setting,value
"CCc1c(N2CCN(C(=O)c3ncnc(C)c3O)CC2)c(=O)n2nc(-c3cc4ccccc4s3)nc2n1CC(=O)Nc1ccc(C(F)(F)F)cc1Cl [Example 80, 2-(2-(benzo[b]thiophen-2-yl)-5-ethyl-6-(4-(5-hydroxy-6-methylpyrimidine-4-carbonyl)piperazin-1-yl)-7-oxo-[1,2,4]triazolo[1,5-a]pyrimidin-4(7H)-yl)-N-(2-chloro-4-(trifluoromethyl)phenyl)acet amide]",IC50,[1],0.001 to 0.1 µM
same,IC50,[2],0.001 to 0.1 µM
same,AUC(0-t),[3]; read-out: Area under curve AUC0-t,104 µg·h/mL
same,half-life,[3]; read-out: Half-life T1/2 (converted),2.11 h
same,Cmax,[3]; read-out: Plasma concentration Cmax,19.8 µg/mL

# — EP4800015A1, “AZABICYCLO DERIVATIVE AND PREPARATION METHOD THEREFOR, AND USE” (Zhejiang Hisun Pharmaceutical Co., Ltd., priority 2023, dated 2025)
